US20160324154A1, “Herbicidal mixtures comprising imazethapyr, imazamox and fomesafen, sulfentrazone or bentazone” (BASF AGROCHEMICAL PRODUCTS B.V., priority 2014, published 2016)

Tests used:
Format in all cases: in vivo
Phalaris canariensis = assay: Post emergence treatment, herbicidal activity against PHACA; parameters: scale not given here
Description: (§1) Synergism can be described as an interaction where the combined effect of two or more compounds is greater than the sum of the individual effects of each of the compounds. […] However, the weed control afforded by the compounds, mixtures or compositions is not limited to these species.The analysis of synergism or antagonism between the mixtures or compositions was determined using Colby's equation. Analogously, the Colby's equation can be used to determine synergism of 3-way and higher mixtures: [table] Post Emergence Treatment by the Mixture of (Imazamox+Imazethapyr)+Bentazon Post Emergence Treatment by the Mixture of (Imazamox+Imazethapyr)+Fomesafen Post Emergence Treatment by the Mixture of (Imazamox+Imazethapyr)+Sulfentrazone

Leptochloa fusca = assay: Post emergence treatment, herbicidal activity against LEFFA
Description: as §1

Ambrosia artemisiifolia = assay: Post emergence treatment, herbicidal activity against AMBEL
Description: as §1, with “(Imazamox+Imazethapyr)+Fomesafen” for “(Imazamox+Imazethapyr)+Fomesafen Post Emergence Treatment by the Mixture of (Imazamox+Imazethapyr)+Sulfentrazone”

Geranium dissectum = assay: Post emergence treatment, herbicidal activity against GERDI; parameters: scale not given here
Description: as §1

Abutilon theophrasti = assay: Post emergence treatment, herbicidal activity against ABUTH; conditions: Example 1, post emergence; g ai/ha: imazethapyr 15, imazamox 15, bentazon 25, mixture (15 + 15) + 25
Description: (§2) Synergism can be described as an interaction where the combined effect of two or more compounds is greater than the sum of the individual effects of each of the compounds. […] However, the weed control afforded by the compounds, mixtures or compositions is not limited to these species.The analysis of synergism or antagonism between the mixtures or compositions was determined using Colby's equation. Analogously, the Colby's equation can be used to determine synergism of 3-way and higher mixtures: [table] Post Emergence Treatment by the Mixture of (Imazamox+Imazethapyr)+Bentazon

Echinochloa crus-galli = assay: Post emergence treatment, herbicidal activity against ECHCG; conditions: Example 1, post emergence; g ai/ha: imazethapyr 15, imazamox 15, bentazon 50, mixture (15 + 15) + 50
Description: as §2

Setaria faberi = assay: Post emergence treatment, herbicidal activity against SETFA
Description: as §1, with “of” for “of (Imazamox+Imazethapyr)+Fomesafen Post Emergence Treatment by the Mixture of”

Digitaria sanguinalis = assay: Post emergence treatment, herbicidal activity against DIGSA; conditions: Example 1, post emergence; g ai/ha: imazethapyr 15, imazamox 15, bentazon 50, mixture (15 + 15) + 50
Description: as §2

Sesbania exaltata = assay: Post emergence treatment, herbicidal activity against SEBEX; parameters: scale not given here
Description: as §1

Conyza canadensis = assay: Post emergence treatment, herbicidal activity against ERICA
Description: as §1, with “(Imazamox+Imazethapyr)+Fomesafen” for “(Imazamox+Imazethapyr)+Fomesafen Post Emergence Treatment by the Mixture of (Imazamox+Imazethapyr)+Sulfentrazone”

Convolvulus arvensis = assay: Post emergence treatment, herbicidal activity against CONAR; conditions: Example 2, post emergence; g ai/ha: imazethapyr 15, imazamox 15, fomesafen 6, mixture (15 + 15) + 6
Description: Synergism can be described as an interaction where the combined effect of two or more compounds is greater than the sum of the individual effects of each of the compounds. […] However, the weed control afforded by the compounds, mixtures or compositions is not limited to these species.The analysis of synergism or antagonism between the mixtures or compositions was determined using Colby's equation. Analogously, the Colby's equation can be used to determine synergism of 3-way and higher mixtures: [table] Post Emergence Treatment by the Mixture of (Imazamox+Imazethapyr)+Fomesafen

Polygonum persicaria = assay: Post emergence treatment, herbicidal activity against POLPE
Description: as §1, with “of” for “of (Imazamox+Imazethapyr)+Bentazon Post Emergence Treatment by the Mixture of”

Panicum miliaceum = assay: Post emergence treatment, herbicidal activity against PANMI; conditions: Example 3, post emergence; g ai/ha: imazethapyr 15, imazamox 15, sulfentrazone 6, mixture (15 + 15) + 6
Description: (§3) Synergism can be described as an interaction where the combined effect of two or more compounds is greater than the sum of the individual effects of each of the compounds. […] However, the weed control afforded by the compounds, mixtures or compositions is not limited to these species.The analysis of synergism or antagonism between the mixtures or compositions was determined using Colby's equation. Analogously, the Colby's equation can be used to determine synergism of 3-way and higher mixtures: [table] Post Emergence Treatment by the Mixture of (Imazamox+Imazethapyr)+Sulfentrazone

Brachiaria decumbens = assay: Post emergence treatment, herbicidal activity against BRADC; conditions: Example 3, post emergence; g ai/ha: imazethapyr 15, imazamox 15, sulfentrazone 10, mixture (15 + 15) + 10
Description: as §3

[1] = Example 1, post emergence, g ai/ha: imazethapyr 15, imazamox 15, bentazon 25, mixture (15 + 15) + 25
[2] = Example 2, post emergence, g ai/ha: imazethapyr 15, imazamox 15, fomesafen 6, mixture (15 + 15) + 6
[3] = Example 3, post emergence, g ai/ha: imazethapyr 15, imazamox 15, sulfentrazone 6, mixture (15 + 15) + 6
[4] = Example 2, post emergence, g ai/ha: imazethapyr 15, imazamox 15, fomesafen 10, mixture (15 + 15) + 10
[5] = Example 1, post emergence, g ai/ha: imazethapyr 15, imazamox 15, bentazon 50, mixture (15 + 15) + 50
[6] = Example 3, post emergence, g ai/ha: imazethapyr 15, imazamox 15, sulfentrazone 10, mixture (15 + 15) + 10

Structure (SMILES) | Herbicidal activity against PHACA Found (Phalaris canariensis; [1]) | Herbicidal activity against PHACA Found (Phalaris canariensis; [2]) | Herbicidal activity against PHACA Found (Phalaris canariensis; [3]) | Herbicidal activity against LEFFA Found (Leptochloa fusca; [1]) | Herbicidal activity against LEFFA Found (Leptochloa fusca; [2]) | Herbicidal activity against LEFFA Found (Leptochloa fusca; [3]) | Herbicidal activity against AMBEL Found (Ambrosia artemisiifolia; [1]) | Herbicidal activity against AMBEL Found (Ambrosia artemisiifolia; [4]) | Herbicidal activity against GERDI Found (Geranium dissectum; [1]) | Herbicidal activity against GERDI Found (Geranium dissectum; [2]) | Herbicidal activity against GERDI Found (Geranium dissectum; [4]) | Herbicidal activity against GERDI Found (Geranium dissectum; [3]) | Herbicidal activity against ABUTH Found (Abutilon theophrasti) | Herbicidal activity against ECHCG Found (Echinochloa crus-galli) | Herbicidal activity against SETFA Found (Setaria faberi; [5]) | Herbicidal activity against SETFA Found (Setaria faberi; [3]) | Herbicidal activity against DIGSA Found (Digitaria sanguinalis) | Herbicidal activity against SEBEX Found (Sesbania exaltata; [5]) | Herbicidal activity against SEBEX Found (Sesbania exaltata; [4]) | Herbicidal activity against SEBEX Found (Sesbania exaltata; [6]) | further results
COCc1cnc(C2=NC(C)(C(C)C)C(=O)N2)c(C(=O)O)c1 (racemic) [Imazamox, 2-[(RS)-4-isopropyl-4-methyl-5-oxo-2-imidazolin-2-yl]-5-methoxymethylnicotinic acid] | 65 | 65 | 65 | 85 | 85 | 85 | 98 | 70 | 80 | 80 | 95 | 80 | 95 | 98 | 98 | 98 | 98 | 45 | 45 | 45 | Herbicidal activity against ERICA Found (Conyza canadensis; [5]): 60; Herbicidal activity against ERICA Found (Conyza canadensis; [4]): 60; Herbicidal activity against CONAR Found (Convolvulus arvensis): 75; Herbicidal activity against POLPE Found (Polygonum persicaria; [2]): 95; Herbicidal activity against POLPE Found (Polygonum persicaria; [6]): 95; Herbicidal activity against PANMI Found (Panicum miliaceum): 98; Herbicidal activity against BRADC Found (Brachiaria decumbens): 35
CC(C)N1C(=O)c2ccccc2NS1(=O)=O [Bentazon, 3-isopropyl-1H-2,1,3-benzothiadiazin-4(3H)-one 2,2-dioxide] | 0 |  |  | 0 |  |  | 0 |  | 0 |  |  |  | 0 | 35 | 10 |  | 40 | 40 |  |  | Herbicidal activity against ERICA Found (Conyza canadensis; [5]): 40
Cc1nn(-c2cc(NS(C)(=O)=O)c(Cl)cc2Cl)c(=O)n1C(F)F [Sulfentrazone, 2′,4′-dichloro-5′-(4-difluoromethyl-4,5-dihydro-3-methyl-5-oxo-1H-1,2,4-triazol-1-yl)methanesulfonanilide] |  |  | 0 |  |  | 0 |  |  |  |  |  | 0 |  |  |  | 0 |  |  |  | 80 | Herbicidal activity against POLPE Found (Polygonum persicaria; [6]): 80; Herbicidal activity against PANMI Found (Panicum miliaceum): 0; Herbicidal activity against BRADC Found (Brachiaria decumbens): 30
CCc1cnc(C2=NC(C)(C(C)C)C(=O)N2)c(C(=O)O)c1 (racemic) [Imazethapyr, 5-ethyl-2-[(RS)-4-isopropyl-4-methyl-5-oxo-2-imidazolin-2-yl]nicotinic acid] | 30 | 30 | 30 | 45 | 45 | 45 | 98 | 65 | 65 | 65 | 65 | 65 | 50 | 80 | 90 | 95 | 80 | 0 | 0 | 0 | Herbicidal activity against ERICA Found (Conyza canadensis; [5]): 55; Herbicidal activity against ERICA Found (Conyza canadensis; [4]): 55; Herbicidal activity against CONAR Found (Convolvulus arvensis): 65; Herbicidal activity against POLPE Found (Polygonum persicaria; [2]): 0; Herbicidal activity against POLPE Found (Polygonum persicaria; [6]): 75; Herbicidal activity against PANMI Found (Panicum miliaceum): 70; Herbicidal activity against BRADC Found (Brachiaria decumbens): 10
CS(=O)(=O)NC(=O)c1cc(Oc2ccc(C(F)(F)F)cc2Cl)ccc1[N+](=O)[O-] [Fomesafen, 5-(2-chloro-α,α,α-trifluoro-p-tolyloxy)-N-mesyl-2-nitrobenzamide] |  | 0 |  |  | 0 |  |  | 65 |  | 0 | 70 |  |  |  |  |  |  |  | 80 |  | Herbicidal activity against ERICA Found (Conyza canadensis; [4]): 30; Herbicidal activity against CONAR Found (Convolvulus arvensis): 0; Herbicidal activity against POLPE Found (Polygonum persicaria; [2]): 20
